# Marks after values point to notes of the source that are not given here.
# Tests used:
# [1] = system: Erysiphe graminis f. sp. tritici; assay: Test L: wheat powdery mildew, preventive spray on wheat seedlings
# Sclerotinia sclerotiorum = assay: Test C: cucumber white mold, preventive spray on cucumber seedlings
# Botrytis cinerea = assay: Test E: tomato botrytis, preventive spray on tomato seedlings
# Rhizoctonia oryzae = assay: Test G: turf brown patch, preventive spray on creeping bent grass seedlings
# Method: (the causal agent of turf brown patch) and incubated in a saturated atmosphere at 27° C. for 24 h, and then moved to a growth chamber at 27° C. for 5 days, after which disease ratings were made.
# fusarium graminearium = assay: Test I: wheat head scab, preventive spray on wheat seedlings
# Method: (the causal agent of wheat head scab) and incubated in a saturated atmosphere at 20° C. for 72 h, and then moved to a growth chamber at 22° C. for 5 days, after which disease ratings were made.
# [2] = system: Colletotrichum orbiculare; assay: Test B: cucumber Colletotrichum anthracnose, preventive spray on cucumber seedlings
# Plasmopara viticola = assay: Test D: grape downy mildew, spray after inoculation of grape seedlings; assay type: in vivo
# Excerpt: Upon removal, disease ratings were made. […] A dash (-) indicates no test results.
# Septoria nodorum = assay: Test H: wheat glum blotch, preventive spray on wheat seedlings
# Method: (the causal agent of wheat glum blotch) and incubated in a saturated atmosphere at 20° C. for 48 h, and then moved to a growth chamber at 22° C. for 5 days, after which disease ratings were made.
# Pythium aphanidermatum = assay: Test A: bluegrass pythium blight, preventive spray on bluegrass seedlings
# Phytophthora infestans = assay: whole plant or invertebrate; assay type: in vivo
# Septoria tritici = assay: Test J: wheat leaf blotch, preventive spray on wheat seedlings; assay type: in vivo
# Excerpt: A dash (-) indicates no test results.
# [3] = system: Puccinia recondita f. sp. tritici; assay: Test K: wheat leaf rust, preventive spray on wheat seedlings
# [4] = 200 ppm, 100 = 100% disease control, 0 = no control
# [5] = 40 ppm (marked *), 100 = 100% disease control, 0 = no control
SMILES,Test C disease control rating (Sclerotinia sclerotiorum; 200 ppm),Test I disease control rating (fusarium graminearium; 200 ppm),Test D disease control rating (Plasmopara viticola; 200 ppm),Test A disease control rating (Pythium aphanidermatum; 200 ppm),Test F disease control rating (Phytophthora infestans; 200 ppm),Test L disease control rating ([1]; 40 ppm (*)),Test C disease control rating (Sclerotinia sclerotiorum; 40 ppm (*)),Test E disease control rating (Botrytis cinerea; 40 ppm (*)),Test G disease control rating (Rhizoctonia oryzae; 40 ppm (*)),Test I disease control rating (fusarium graminearium; 40 ppm (*)),Test B disease control rating ([2]; 40 ppm (*)),Test D disease control rating (Plasmopara viticola; 40 ppm (*)),Test H disease control rating (Septoria nodorum; 40 ppm (*)),Test A disease control rating (Pythium aphanidermatum; 40 ppm (*)),Test F disease control rating (Phytophthora infestans; 40 ppm (*)),Test J disease control rating (Septoria tritici; 40 ppm (*)),Test K disease control rating ([3]; 40 ppm (*)),other results
O=c1c(-n2cccn2)nc(Cl)c(-c2c(F)cccc2F)n1CC1CC1 [compound 18],99%,0%,98%,0%,0%,,,,,,,,,,,,,Test L disease control rating ([1]; 200 ppm): 100%; Test E disease control rating (Botrytis cinerea; 200 ppm): 100%; Test G disease control rating (Rhizoctonia oryzae; 200 ppm): 100%; Test B disease control rating ([2]; 200 ppm): 100%; Test H disease control rating (Septoria nodorum; 200 ppm): 100%; Test J disease control rating (Septoria tritici; 200 ppm): 100%; Test K disease control rating ([3]; 200 ppm): 100%
O=c1c(-n2cccn2)nc(Cl)c(-c2c(F)cccc2F)n1CCCl [compound 124],,,,,,0* %,0* %,99* %,21* %,0* %,0* %,0* %,100* %,0* %,0* %,100* %,100* %,
Cc1ccn(-c2nc(Cl)c(-c3ccc4c(c3)OC(F)(F)O4)n(CC(C)C)c2=O)n1 [compound 256],,,,,,,,,,,,,,,,,,"Test L disease control rating [1, 4]: 0%; Test C disease control rating (Sclerotinia sclerotiorum; [4]): 0%; Test E disease control rating (Botrytis cinerea; [4]): 0%; Test G disease control rating (Rhizoctonia oryzae; [4]): 0%; Test I disease control rating (fusarium graminearium; [4]): 0%; Test B disease control rating [2, 4]: 0%; Test D disease control rating (Plasmopara viticola; [4]): 0%; Test H disease control rating (Septoria nodorum; [4]): 0%; Test A disease control rating (Pythium aphanidermatum; [4]): 0%; Test F disease control rating (Phytophthora infestans; [4]): 0%; Test J disease control rating (Septoria tritici; [4]): 38%; Test K disease control rating [3, 4]: 0%"
CC(C)Cn1c(-c2cccc(F)c2)c(Cl)nc(-n2cncn2)c1=O [compound 230],,,,,,0* %,0* %,82* %,0* %,0* %,0* %,0* %,0* %,0* %,0* %,24* %,0* %,
CCCCn1c(-c2ccc(F)cc2Cl)c(Br)nc(-n2cccn2)c1=O [compound 284],,,,,,,,,,,,,,,,,,"Test L disease control rating [1, 5]: 96* %; Test C disease control rating (Sclerotinia sclerotiorum; [5]): 0* %; Test E disease control rating (Botrytis cinerea; [5]): 94* %; Test G disease control rating (Rhizoctonia oryzae; [5]): 0* %; Test I disease control rating (fusarium graminearium; [5]): 0* %; Test B disease control rating [2, 5]: 0* %; Test D disease control rating (Plasmopara viticola; [5]): 0* %; Test H disease control rating (Septoria nodorum; [5]): 99* %; Test A disease control rating (Pythium aphanidermatum; [5]): 0* %; Test F disease control rating (Phytophthora infestans; [5]): 16* %; Test J disease control rating (Septoria tritici; [5]): 100* %; Test K disease control rating [3, 5]: 95* %"
CCC(C)Cn1c(-c2c(F)cccc2F)c(Cl)nc(-n2cccc2)c1=O (stereo not drawn) [compound 82],0%,0%,0%,0%,0%,0* %,,0* %,0* %,,0* %,,73* %,,,5* %,68* %,
Cc1ccn(-c2nc(Cl)c(C3CCCC3)n(CC(C)C)c2=O)n1 [compound 293],,,,,,,,,,,,,,,,,,"Test L disease control rating [1, 4]: 0%; Test C disease control rating (Sclerotinia sclerotiorum; [4]): 0%; Test E disease control rating (Botrytis cinerea; [4]): 95%; Test G disease control rating (Rhizoctonia oryzae; [4]): 0%; Test I disease control rating (fusarium graminearium; [4]): 0%; Test B disease control rating [2, 4]: 0%; Test D disease control rating (Plasmopara viticola; [4]): 0%; Test H disease control rating (Septoria nodorum; [4]): 0%; Test A disease control rating (Pythium aphanidermatum; [4]): 0%; Test F disease control rating (Phytophthora infestans; [4]): 0%; Test J disease control rating (Septoria tritici; [4]): 97%; Test K disease control rating [3, 4]: 88%"
O=c1c(-n2cccn2)nc(Cl)c(-c2c(F)cccc2F)n1Cc1ccccc1 [compound 104],0%,0%,9%,0%,0%,,,,,,,,,,,,,Test L disease control rating ([1]; 200 ppm): 100%; Test E disease control rating (Botrytis cinerea; 200 ppm): 100%; Test G disease control rating (Rhizoctonia oryzae; 200 ppm): 95%; Test B disease control rating ([2]; 200 ppm): 100%; Test H disease control rating (Septoria nodorum; 200 ppm): 100%; Test J disease control rating (Septoria tritici; 200 ppm): 100%; Test K disease control rating ([3]; 200 ppm): 100%
COC(=O)Cn1c(-c2c(F)cccc2F)c(Cl)nc(-n2cncn2)c1=O [compound 123],,,,,,0* %,0* %,0* %,0* %,0* %,0* %,0* %,0* %,0* %,0* %,19* %,0* %,
CC(CF)n1c(-c2c(F)cccc2F)c(Cl)nc(-n2cccn2)c1=O (stereo not drawn) [compound 238],,,,,,74* %,0* %,99* %,93* %,0* %,63* %,0* %,98* %,0* %,0* %,96* %,100* %,
Cc1ccn(-c2nc(Cl)c(CC(C)C)n(CC(C)C)c2=O)n1 [compound 295],,,,,,,,,,,,,,,,,,"Test L disease control rating [1, 4]: 0%; Test C disease control rating (Sclerotinia sclerotiorum; [4]): 0%; Test E disease control rating (Botrytis cinerea; [4]): 0%; Test G disease control rating (Rhizoctonia oryzae; [4]): 0%; Test I disease control rating (fusarium graminearium; [4]): 0%; Test B disease control rating [2, 4]: 0%; Test D disease control rating (Plasmopara viticola; [4]): 0%; Test H disease control rating (Septoria nodorum; [4]): 0%; Test A disease control rating (Pythium aphanidermatum; [4]): 0%; Test F disease control rating (Phytophthora infestans; [4]): 0%; Test J disease control rating (Septoria tritici; [4]): 53%; Test K disease control rating [3, 4]: 27%"
CC(C)Cn1c(-c2ccc(Cl)cc2Cl)c(Cl)nc(-n2cncn2)c1=O [compound 118],98%,81%,0%,0%,16%,,,,,,,,,,,,,Test L disease control rating ([1]; 200 ppm): 0%; Test E disease control rating (Botrytis cinerea; 200 ppm): 99%; Test G disease control rating (Rhizoctonia oryzae; 200 ppm): 71%; Test B disease control rating ([2]; 200 ppm): 96%; Test H disease control rating (Septoria nodorum; 200 ppm): 92%; Test J disease control rating (Septoria tritici; 200 ppm): 100%; Test K disease control rating ([3]; 200 ppm): 91%

# — patent US20080194585A1, “Fungicidal Pyrazine Derivatives” (priority 2005, published 2008)
